Laboratory results taken from US12617779B2, “Self degradation-type CDK9 inhibitor prodrug and liposome encapsulating same” (Sumitomo Pharma Co., Ltd., priority 2021, dated 2026).
Structures can show the parent of a compound that is named as a salt.

Assay: Stability evaluation of liposome formulation under storage conditions (Experimental Example 5)
Type: physicochemical
Settings: for Alvocidib content % in liposome formulation: liposome formulation stored at 5° C.; for Change of Alvocidib content in liposome formulation: 5° C.
Procedure: For Example 1, Example 2, Example 5, Example 6, Example 7, Example 8, Comparative Example 7 and Comparative Example 9, the storage stability of liposome formulation was evaluated by the following method.
For the liposome formulations of Example 1, Example 2, Example 5, Example 6, Example 7, Example 8, Comparative Example 7, and Comparative Example 9, the liposome outer solution was replaced with 10% sucrose solution or 10 mM tartrate buffer solution/10% sucrose solution (pH 4) using Sephadex G-25 column (PD-10, manufactured by GE Healthcare) or a dialysis cassette (Slide-A-Lyzer G2 Dialysis Cassettes 20K MWCO, manufactured by Thermo Scientific) to remove unencapsulated compound. The liposome formulation was filtered through a 0.22 μm membrane filter, and stored at 5° C. After 0 to 18 months, the Alvocidib content in the liposome formulations of Example 1, Example 2, Example 5, Example 6, Example 7, Example 8, Comparative Example 7 and Comparative Example 9 was determined by HPLC.
The HPLC measurement conditions are as follows.

## C[C@H](N)C(=O)O[C@@H]1CN(C)CC[C@@H]1c1c(O)cc(O)c2c(=O)cc(-c3ccccc3Cl)oc12 [Comparative Example 7, reference compound]
0 month
  Alvocidib content % in liposome formulation: 0.56%
7 months
  Alvocidib content % in liposome formulation: 23.2%
At 6 to 7 months
  Change of Alvocidib content in liposome formulation: significant increase

## CN1CC[C@H](c2c(O)cc(O)c3c(=O)cc(-c4ccccc4Cl)oc23)[C@H](OC(=O)[C@@H](N)CO)C1 [Comparative Example 9, reference compound]
0 month
  Alvocidib content % in liposome formulation: 1.17%
6 months
  Alvocidib content % in liposome formulation: 27.2%
At 6 to 7 months
  Change of Alvocidib content in liposome formulation: significant increase

## CCN(CC1CCCCN1)C(=O)Oc1cc(O)c2c(=O)cc(-c3ccccc3Cl)oc2c1[C@H]1CCN(C)C[C@H]1O (stereo partly drawn) [Example 7, 2-(2-chlorophenyl)-5-hydroxy-8-[(3S,4R)-3-hydroxy-1-methylpiperidin-4-yl]-4-oxo-4H-1-benzopyran-7-yl ethyl[(piperidin-2-yl)methyl]carbamate dihydrochloride]
After 15 months
  Change of Alvocidib content in liposome formulation: hardly increased

## CN1CC[C@H](c2c(OC(=O)N(C)CC3CCCCN3)cc(O)c3c(=O)cc(-c4ccccc4Cl)oc23)[C@H](O)C1 (stereo partly drawn) [Example 8, 2-(2-chlorophenyl)-5-hydroxy-8-[(3S,4R)-3-hydroxy-1-methylpiperidin-4-yl]-4-oxo-4H-1-benzopyran-7-yl methyl[(piperidin-2-yl)methyl]carbamate]
After 18 months
  Change of Alvocidib content in liposome formulation: hardly increased
